What was measured:
BRD4 short isoform = target: T1, BRD4 short isoform (Homo sapiens, UniProt O60885); assay: BRD4 degradation assay (Western blot, MDA-MB-468 cells), short isoform; type: cell-based; details: MDA-MB-468, n = 2
T1 construct: endogenous in cells; host or cells: MDA-MB-468
Protocol: (§1) BRD4 Degradation Assay Protocol Summary
(§2) MDA-MB-468 cells were cultured routinely in DMEM supplemented with 10% heat inactivated FBS and 1% Penicillin-Streptomycin (Thermofisher Scientific) at 37° C. 5% CO2. Cells were seeded in 6-well plates at 4*10^5 cells per well and left to adhere overnight. Example compounds were solubilised in DMSO to make 10 mM stocks followed by serial dilutions in DMSO to 200× final concentration. These were further diluted in culture media to give 20× treatment stocks before addition to cells to a 1× final concentration. Cells were then incubated at 37° C. 5% CO2 for 24 or 48 hours after which cells were lysed in RIPA buffer supplemented with cOmplete Mini Protease Inhibitor Cocktail and PhosSTOP™ (Roche). Lysates were clarified by centrifugation at 13,000 RPM for 10 minutes and the protein concentration of the resulting supernatants determined by BCA assay (ThermoFisher Scientific) as per manufacturer's instructions. Lysates were denatured and reduced in NuPAGE LDS sample buffer and sample reducing agent before 10 μg was loaded onto NuPAGE […] Tris-Acetate Mini Protein Gels (ThermoFisher Scientific). Protein was transferred to nitrocellulose membranes using a Trans-Blot Turbo Transfer System (Bio-Rad) before blocking for 1 hour in Intercept (TBS) Blocking Buffer (Li-Cor). Membranes were then incubated overnight with BRD4 (ab128874; Abcam) and α-tubulin (T6074; Sigma-Aldrich) antibodies diluted 1:2000 and 1:16,000 respectively in Tris-buffered saline 0.05% Tween 20 (TBS-T). The following day, membranes were washed with TBS-T before addition of anti-rabbit IRDye 800 CW and anti-mouse IRDye 680LT secondary antibodies (LiCor) (diluted 1:10,000 in TBS-T) for one hour. Membranes were then washed with TBS-T before imaging using a LICOR Odyssey Infrared Imaging System with Image Studio Ver 5.2 software (LiCor). Densitometry analysis was carried out in the LiCor image studio software where BRD4 signal was normalised to α-tubulin signal. Percentage degradation of BRD4 relative to the DMSO treated negative control was calculated as: =100−(signal of interest/signal of control sample*100). BRD4 degradation by dBET1 was used as positive control for each plate. Data obtained for the percentage degradation of BRD4 upon treatment with the Example compounds 1-6 and Comparative Example compounds 1-3 at 24 hour incubation are shown in Table 2 and with 48 hour incubation are shown in Table 3.

[1] = tested on: NRF2 mediated gene NAD(P)H:quinone acceptor oxidoreductase 1 (NQO1) mRNA in BEAS-2B cells; assay: Beas2B NQO1 mRNA cell based assay; details: Homo sapiens, 24 h, vs vehicle (0.1% DMSO), read-out: EC50 (increase in NQO1 mRNA)
Protocol: Beas2B NQO1 mRNA Cell Based Assay
The up-regulation of the NRF2 mediated gene NAD(P)H:quinone acceptor oxidoreductase 1 (NQO1) was measured using the following assay method: BEAS-2B cells (ATCC CRL-9609) were plated in 96-well clear plates at 20,000 cells/well in 75 μL of cell culture media and incubated overnight (37° C., 5% CO2). On day 2, 25 μL of compound or controls were added to the cells for 24 h. On day 3, the medium was aspirated from the plate and the Cells-to-CT™ 1-Step TaqMan® Kit (Ambion A25603) was used to perform expression analysis directly from cultured cells without RNA purification according to the manufacturer's instructions.
Briefly, cells were washed with ice cold PBS and 22.5 μL of room-temperature DNase/Lysis solution was added to the cells and incubated at room temperature for 5 minutes. To stop the reaction, 2.25 μL of stop solution was added to the cell lysate. The samples were diluted 1:5 using nuclease free water and 2.5 μL transferred into the PCR plate. Real-time PCR was performed using the C-1000 Thermal Cycler (Bio-Rad) using human beta actin as the internal control. The cDNA was amplified with a specific primer for NQO1 using the 1-step RT-PCR master mix (Ambion Cells-to-CT™ 1-Step TaqMan® Kit A25603). The primers/probes sets that were used for amplification of cDNA were obtained from TaqMan Gene Expression Assays (Applied Biosystems). The comparative CT (ΔΔCT) relative quantification method was used to calculate the relative mRNA level of the target gene NQO1 as described in the Applied Biosystems Chemistry Guide. The data are expressed as an increase in target gene mRNA compared to vehicle (0.1% DMSO) control and the EC50 values were determined by fitting the data to a four parameter logistic fit using XLfit or XE Runner within ActivityBase.

BRD4 = target: T2, BRD4 (Homo sapiens, UniProt O60885); assay: BRD4 degradation assay (Western blot, MDA-MB-468 cells), isoform not given; type: cell-based
T2 construct: endogenous in cells; host or cells: MDA-MB-468
Protocol: as §1
MDA-MB-468 cells were cultured routinely in DMEM supplemented with 10% heat inactivated FBS and 1% Penicillin-Streptomycin (Thermofisher Scientific) at 37° C. 5% CO2. Cells were seeded in 6-well plates at 4*10^5 cells per well and left to adhere overnight. Example compounds were solubilised in DMSO to make 10 mM stocks followed by serial dilutions in DMSO to 200× final concentration. These were further diluted in culture media to give 20× treatment stocks before addition to cells to a 1× final concentration. Cells were then incubated at 37° C. 5% CO2 for 24 or 48 hours after which cells were lysed in RIPA buffer supplemented with cOmplete Mini Protease Inhibitor Cocktail and PhosSTOP™ (Roche). Lysates were clarified by centrifugation at 13,000 RPM for 10 minutes and the protein concentration of the resulting supernatants determined by BCA assay (ThermoFisher Scientific) as per manufacturer's instructions. Lysates were denatured and reduced in NuPAGE LDS sample buffer and sample reducing agent before 10 μg was loaded onto NuPAGE […] Tris-Acetate Mini Protein Gels (ThermoFisher Scientific). […] Percentage degradation of BRD4 relative to the DMSO treated negative control was calculated as: =100−(signal of interest/signal of control sample*100). […]

BRD4 long isoform = target: T3, BRD4 long isoform (Homo sapiens, UniProt O60885); assay: BRD4 degradation assay (Western blot, MDA-MB-468 cells), long isoform; type: cell-based; details: MDA-MB-468, n = 2
T3 construct: endogenous in cells; host or cells: MDA-MB-468
Protocol: as §1, §2

% Mean Degradation of BRD4 (BRD4 short isoform; 24 h, 0.01 μM): 69%
% Mean Degradation of BRD4 (BRD4 short isoform; 24 h, 0.1 μM): 97%
% Mean Degradation of BRD4 (BRD4 short isoform; 24 h, 1 μM): 96%
% Mean Degradation of BRD4 (BRD4 short isoform; 48 h, 0.01 μM): 68%
% Mean Degradation of BRD4 (BRD4 short isoform; 48 h, 0.1 μM): 93%
% Mean Degradation of BRD4 (BRD4 short isoform; 48 h, 1 μM): 100%
degradation of BRD4 (BRD4; at 0.01 μM): up to 75%
% Mean Degradation of BRD4 (BRD4 long isoform; 24 h, 0.01 μM): 75%
% Mean Degradation of BRD4 (BRD4 long isoform; 24 h, 0.1 μM): 99%
% Mean Degradation of BRD4 (BRD4 long isoform; 24 h, 1 μM): 101%
% Mean Degradation of BRD4 (BRD4 long isoform; 48 h, 0.01 μM): 74%
% Mean Degradation of BRD4 (BRD4 long isoform; 48 h, 0.1 μM): 97%
% Mean Degradation of BRD4 (BRD4 long isoform; 48 h, 1 μM): 99%
SMILES: Cc1sc2c(c1C)C(c1ccc(Cl)cc1)=N[C@@H](CC(=O)NCC(=O)NCCn1nnc(COc3ccc(Cl)c4c3[C@@H](CN3CC5(CC5)CC3=O)N(C(=O)[C@@H]3CCCC[C@]3(C)C(=O)O)CC4)c1C)c1nnc(C)n1-2 [Example 1, (1S,2R)-2-((S)-5-Chloro-8-((1-(2-(2-(2-((S)-4-(4-chlorophenyl)-2,3,9-trimethyl-6H-thieno[3,2-f][1,2,4]triazolo[4,3-a][1,4]diazepin-6-yl)acetamido)acetamido)ethyl)-5-methyl-1H-1,2,3-triazol-4-yl)methoxy)-1-((6-oxo-5-azaspiro[2.4]heptan-5-yl)methyl)-1,2,3,4-tetrahydroisoquinoline-2-carbonyl)-1-methylcyclohexane-1-carboxylic acid]
EC50 [1]: 187 nM
target protein (BRD4) degradation (BRD4; at ≥0.1 μM): almost complete target protein degradation

— patent US20240424112A1, “TETRAHYDROISOQUINOLINE COMPOUNDS THAT ARE KEAP1 BINDERS” (C4X Discovery Limited, priority 2021, published 2024)
